This assay concerns the target human APJ receptor (Homo sapiens (Human), UniProt P35414). Put plainly: [35S]GTPγS binding assay on membranes from CHO cells stably expressing human APJ receptor. It is filed as biochemical. The conditions noted are these: membranes of CHO cells stably expressing human APJ receptor, read-out: Activity hAPJ SPA EC50 IP. The method, boiled down:
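[35S]GTPγS binding measured on membranes from CHO cells stably expressing FLAG-tagged human APJ, with GDP, MgCl2 and NaCl levels optimized beforehand. Incubation 90 min at RT, imager read-out; EC50 from non-linear regression, averaged over several independent experiments.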
Background: GTPγS resists hydrolysis and so accumulates on activated G proteins.
Sequence of human APJ receptor (P35414 whole entry): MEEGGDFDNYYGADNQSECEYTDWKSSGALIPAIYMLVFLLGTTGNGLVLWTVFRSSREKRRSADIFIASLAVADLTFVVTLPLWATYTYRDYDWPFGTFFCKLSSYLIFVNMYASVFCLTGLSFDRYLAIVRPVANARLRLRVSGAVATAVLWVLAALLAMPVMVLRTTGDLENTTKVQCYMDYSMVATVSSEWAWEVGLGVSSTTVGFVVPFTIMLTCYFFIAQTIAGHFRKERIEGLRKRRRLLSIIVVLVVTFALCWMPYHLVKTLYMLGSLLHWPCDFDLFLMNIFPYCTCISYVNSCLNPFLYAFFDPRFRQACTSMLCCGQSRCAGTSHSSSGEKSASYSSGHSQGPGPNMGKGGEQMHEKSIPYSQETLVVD
For `COc1cccc(-c2nnc(NS(=O)(=O)[C@@H](C)[C@H](OC)c3ncc(Cl)cn3)n2C[C@@H]2COCCO2)n1` (racemic) [Example 304.0, (1R,2S)-N-(4-(((R)-1,4-dioxan-2-yl)methyl)-5-(6-methoxypyridin-2-yl)-4H-1,2,4-triazol-3-yl)-1-(5-chloropyrimidin-2-yl)-1-methoxypropane-2-sulfonamide or (1R,2S)-N-(4-(((S)-1,4-dioxan-2-yl)methyl)-5-(6-methoxypyridin-2-yl)-4H-1,2,4-triazol-3-yl)-1-(5-chloropyrimidin-2-yl)-1-methoxypropane-2-sulfonamide], the EC50 stood at 20 nM.

`CC[C@@H](c1c(C)noc1C)n1c(NS(=O)(=O)[C@@H](C)[C@@H](OC(C)C)c2ncc(C)cn2)nnc1-c1cccc(OC)n1` (single isomer, unassigned) [Example 221.0, (1S,2S)-N-(4-((1R)-1-(3,5-dimethyl-1,2-oxazol-4-yl)propyl)-5-(6-methoxy-2-pyridinyl)-4H-1,2,4-triazol-3-yl)-1-(5-methyl-2-pyrimidinyl)-1-(2-propanyloxy)-2-propanesulfonamide or (1S,2S)-N-(4-((1S)-1-(3,5-dimethyl-1,2-oxazol-4-yl)propyl)-5-(6-methoxy-2-pyridinyl)-4H-1,2,4-triazol-3-yl)-1-(5-methyl-2-pyrimidinyl)-1-(2-propanyloxy)-2-propanesulfonamide]: the EC50 is 14 nM.

For the molecule `CO[C@H](c1ncc(Cl)cn1)[C@H](C)S(=O)(=O)Nc1nnc(-c2ccccn2)n1C1(C2CC2)CC1` [Example 108.0], the EC50 amounted to 5.9 nM.

With `COCC(COC)n1c(NS(=O)(=O)[C@@H](C)[C@H](OC)c2ncc(C)cn2)nnc1-c1cccc(OC)n1` [Example 100.0], the EC50 is 6.4 nM.

Turning to `COC[C@H](C)n1c(NS(=O)(=O)[C@@H](C)[C@H](C)c2ncc(Cl)cn2)nnc1-c1ccccn1` [Example 175.0, (2S,3R)-3-(5-chloro-2-pyrimidinyl)-N-(4-((2S)-1-methoxy-2-propanyl)-5-(2-pyridinyl)-4H-1,2,4-triazol-3-yl)-2-butanesulfonamide], the concentration for a half-maximal effect (EC50) amounted to 30 nM.

As for `COC[C@H](C)n1c(NS(=O)(=O)[C@@H](C)[C@H](C)c2ncc(Cl)cn2)nnc1-c1cncc(C)c1` [Example 176.0, (2S,3R)-3-(5-chloro-2-pyrimidinyl)-N-(4-((2S)-1-methoxy-2-propanyl)-5-(5-methyl-3-pyridinyl)-4H-1,2,4-triazol-3-yl)-2-butanesulfonamide], the EC50 is 110 nM.

Turning to `COc1cccc(-c2nnc(NS(=O)(=O)[C@@H](C)[C@H](OC)c3ncc(Cl)cn3)n2CC2CCO2)n1` (stereo partly drawn) [Example 137.0, (1R,2S)-1-(5-chloropyrimidin-2-yl)-1-methoxy-N-(5-(6-methoxypyridin-2-yl)-4-(oxetan-2-ylmethyl)-4H-1,2,4-triazol-3-yl)propane-2-sulfonamide], the EC50 came to 22 nM.

Turning to `COCC1(n2c(NS(=O)(=O)[C@@H](C)[C@H](OC)c3ncc(Cl)cn3)nnc2-c2cccnc2)CC1` [Example 60.0], the EC50 came to 1.2 nM.

With `COc1cccc(-c2nnc(NS(=O)(=O)[C@@H](C)[C@H](C)c3ncc(Cl)cn3)n2[C@H](C)c2cnn(C)c2)n1` (racemic) [Example 298.0, (2S,3R)-3-(5-chloropyrimidin-2-yl)-N-(5-(6-methoxypyridin-2-yl)-4-((R)-1-(1-methyl-1H-pyrazol-4-yl)ethyl)-4H-1,2,4-triazol-3-yl)butane-2-sulfonamide or (2S,3R)-3-(5-chloropyrimidin-2-yl)-N-(5-(6-methoxypyridin-2-yl)-4-((S)-1-(1-methyl-1H-pyrazol-4-yl)ethyl)-4H-1,2,4-triazol-3-yl)butane-2-sulfonamide], the EC50 is 1.5 nM.

Take `COCC(COC)n1c(NS(=O)(=O)[C@@H](C)[C@@H](OC(C)C)c2ncc(C)cn2)nnc1-c1cccc(OC)n1` [Example 104.0]: the EC50 came out at 0.39 nM.

Take `COCC(COC)n1c(NS(=O)(=O)[C@@H](C)[C@H](C)c2cnc(C)cn2)nnc1-c1cccc(OC)n1` [Example 102.0]: the EC50 was 20 nM.

In the case of `COc1cccc(-c2nnc(NS(=O)(=O)[C@@H](C)[C@@H](OC(C)C)c3ncc(C)cn3)n2C[C@H]2CCCCO2)n1` (single isomer, unassigned) [Example 301.0, (1S,2S)-1-isopropoxy-N-(5-(6-methoxypyridin-2-yl)-4-(((R)-tetrahydro-2H-pyran-2-yl)methyl)-4H-1,2,4-triazol-3-yl)-1-(5-methylpyrimidin-2-yl)propane-2-sulfonamide or (1S,2S)-1-isopropoxy-N-(5-(6-methoxypyridin-2-yl)-4-(((S)-tetrahydro-2H-pyran-2-yl)methyl)-4H-1,2,4-triazol-3-yl)-1-(5-methylpyrimidin-2-yl)propane-2-sulfonamide], the EC50 was found to be 4.4 nM.

Consider `CO[C@H](c1ncc(Cl)cn1)[C@H](C)S(=O)(=O)Nc1nnc(-c2cncc(C)c2)n1C[C@H]1CCCCO1` (mixture of isomers) [Example 299.0, (1R,2S)-1-(5-chloropyrimidin-2-yl)-1-methoxy-N-(5-(5-methylpyridin-3-yl)-4-(((R)-tetrahydro-2H-pyran-2-yl)methyl)-4H-1,2,4-triazol-3-yl)propane-2-sulfonamide and (1R,2S)-1-(5-chloropyrimidin-2-yl)-1-methoxy-N-(5-(5-methylpyridin-3-yl)-4-(((S)-tetrahydro-2H-pyran-2-yl)methyl)-4H-1,2,4-triazol-3-yl)propane-2-sulfonamide], for which the EC50 was determined as 120 nM.

For the molecule `CC[C@@H](c1conc1C)n1c(NS(=O)(=O)[C@@H](C)[C@H](C)c2ncc(Cl)cn2)nnc1-c1cccc(OC)n1` (single isomer, unassigned) [Example 232.0, (2S,3R)-3-(5-chloro-2-pyrimidinyl)-N-(5-(6-methoxy-2-pyridinyl)-4-((1R)-1-(3-methyl-1,2-oxazol-4-yl)propyl)-4H-1,2,4-triazol-3-yl)-2-butanesulfonamide or (2S,3R)-3-(5-chloro-2-pyrimidinyl)-N-(5-(6-methoxy-2-pyridinyl)-4-((1S)-1-(3-methyl-1,2-oxazol-4-yl)propyl)-4H-1,2,4-triazol-3-yl)-2-butanesulfonamide], the EC50 came out at 1.5 nM.

Turning to `COc1cccc(-c2nnc(NS(=O)(=O)[C@@H](C)[C@H](OC)c3ncc(Cl)cn3)n2CCc2cccnc2)n1` [Example 284.0, (1R,2S)-1-(5-chloropyrimidin-2-yl)-1-methoxy-N-(5-(6-methoxypyridin-2-yl)-4-(2-(pyridin-3-yl)ethyl)-4H-1,2,4-triazol-3-yl)propane-2-sulfonamide], the EC50 amounted to 120 nM.

Turning to `COc1cccc(-c2nnc(NS(=O)(=O)[C@@H](C)[C@@H](OC(C)C)c3ncc(C)cn3)n2[C@@H](C)c2ccno2)n1` (single isomer, unassigned) [Example 216.0, (1S,2S)-N-(5-(6-methoxy-2-pyridinyl)-4-((1S)-1-(1,2-oxazol-5-yl)ethyl)-4H-1,2,4-triazol-3-yl)-1-(5-methyl-2-pyrimidinyl)-1-(2-propanyloxy)-2-propanesulfonamide or (1S,2S)-N-(5-(6-methoxy-2-pyridinyl)-4-((1R)-1-(1,2-oxazol-5-yl)ethyl)-4H-1,2,4-triazol-3-yl)-1-(5-methyl-2-pyrimidinyl)-1-(2-propanyloxy)-2-propanesulfonamide], the EC50 was found to be 2.2 nM.

For the molecule `COc1cccc(-c2nnc(NS(=O)(=O)[C@@H](C)[C@H](OC)c3ncc(Cl)cn3)n2CC2CCC2)n1` [Example 73.0], the EC50 is 3 nM.

`COc1cccc(-c2nnc(NS(=O)(=O)[C@@H](C)[C@H](OC)c3ncc(Cl)cn3)n2[C@@H]2CCC23CCC3)n1` (stereo in doubt) [Example 56.0]: the EC50 came to 1.9 nM.

As for `COc1cccc(-c2nnc(NS(=O)(=O)[C@@H](C)[C@H](OC)c3ncc(Cl)cn3)n2C[C@@H]2CCC[C@H](C)O2)n1` (single isomer, unassigned) [Example 308.0], the EC50 stood at 1.9 nM.

`CC[C@H](c1c(C)noc1C)n1c(NS(=O)(=O)[C@@H](C)[C@H](C)c2ncc(Cl)cn2)nnc1-c1cccc(OC)n1` (mixture of isomers) [Example 210.0, (2S,3R)-3-(5-chloro-2-pyrimidinyl)-N-(4-((1R)-1-(3,5-dimethyl-1,2-oxazol-4-yl)propyl)-5-(6-methoxy-2-pyridinyl)-4H-1,2,4-triazol-3-yl)-2-butanesulfonamide and (2S,3R)-3-(5-chloro-2-pyrimidinyl)-N-(4-((1S)-1-(3,5-dimethyl-1,2-oxazol-4-yl)propyl)-5-(6-methoxy-2-pyridinyl)-4H-1,2,4-triazol-3-yl)-2-butanesulfonamide]: the EC50 was 5.3 nM.

Consider `COc1cccc(-c2nnc(NS(=O)(=O)[C@@H](C)[C@H](C)c3ncc(Cl)cn3)n2CC2COC2)n1` [Example 2.0, (2S,3R)-3-(5-chloro-2-pyrimidinyl)-N-(5-(6-methoxy-2-pyridinyl)-4-(3-oxetanylmethyl)-4H-1,2,4-triazol-3-yl)-2-butanesulfonamide], for which the EC50 is greater than 4200 nM.

Turning to `COCC1(n2c(NS(=O)(=O)[C@@H](C)[C@@H](OC(C)C)c3ncc(C)cn3)nnc2-c2cccnc2)CC1` [Example 62.0], the EC50 came out at 27 nM.

In the case of `COc1cccc(-c2nnc(NS(=O)(=O)[C@@H](C)[C@H](OC)c3ncc(Cl)cn3)n2CCSC)n1` [Example 26.0, (1R,2S)-1-(5-chloropyrimidin-2-yl)-1-methoxy-N-(5-(6-methoxypyridin-2-yl)-4-(2-(methylthio)ethyl)-4H-1,2,4-triazol-3-yl)propane-2-sulfonamide], the EC50 was found to be 12 nM.

On to `COc1cccc(-c2nnc(NS(=O)(=O)[C@@H](C)[C@H](OC)c3cnc(C)cn3)n2Cc2cc(C)no2)n1` [Example 191.0, (1R,2S)-1-methoxy-N-(5-(6-methoxypyridin-2-yl)-4-((3-methylisoxazol-5-yl)methyl)-4H-1,2,4-triazol-3-yl)-1-(5-methylpyrazin-2-yl)propane-2-sulfonamide], for which the EC50 stood at 390 nM.

By EC50 is commonly meant the concentration giving half of the maximal effect.

These data come from patent US10689367B2, “Triazole pyridyl compounds as agonists of the APJ receptor” (AMGEN INC., priority 2016, dated 2020).
